Results taken from US7304093B2, “Ketone compounds and compositions for cholesterol management and related uses” (Esperion Therapeutics, Inc., priority 2000, dated 2007).
Like-named read-outs stand apart in the source and are kept apart here.

What was measured:
[1] = test system: primary rat hepatocytes; assay: Inhibition of lipid synthesis ([1-14C]-acetate incorporation) in primary cultures of rat hepatocytes; assay type: cell-based; conditions: Hepatocyte, 4 h incubation with [1-14C]-acetate
Experimental: Compounds were tested for inhibition of lipid synthesis in primary cultures of rat hepatocytes. Male Sprague-Dawley rats were anesthetized with intraperitoneal injection of sodium pentobarbital (80 mg/kg). Rat hepatocytes were isolated essentially as described by the method of Seglen (Seglen, P. O. Hepatocyte suspensions and cultures as tools in experimental carcinogenesis. J. Toxicol. Environ. Health 1979, 5, 551-560). Hepatocytes were suspended in Dulbecco's Modified Eagles Medium containing 25 mM D-glucose, 14 mM HEPES, 5 mM L-glutamine, 5 mM leucine, 5 mM alanine, 10 mM lactate, 1 mM pyruvate, 0.2% bovine serum albumin, 17.4 mM non-essential amino acids, 20% fetal bovine serum, […] and 20 μg/mL gentamycin) and plated at a density of 1.5×10^5 cells/cm^2 on collagen-coated 96-well plates. Four hours after plating, media was replaced with the same media without serum. Cells were grown overnight to allow formation of monolayer cultures. Lipid synthesis incubation conditions were initially assessed to ensure the linearity of [1-^14C]-acetate incorporation into hepatocyte lipids for up to 4 hours. Hepatocyte lipid synthesis inhibitory activity was assessed during incubations in the presence of 0.25 μCi [1-^14C]-acetate/well (final radiospecific activity in assay is 1 Ci/mol) and 0, 1, 3, 10, 30, 100 or 300 μM of compounds for 4 hours. At the end of the 4-hour incubation period, medium was discarded and cells were washed twice with ice-cold phosphate buffered saline and stored frozen prior to analysis. To determine total lipid synthesis, 170 μl of MicroScint-E® and 50 μl water was added to each well to extract and partition the lipid soluble products to the upper organic phase containing the scintillant. Lipid radioactivity was assessed by scintillation spectroscopy in a Packard TopCount NXT.

[2] = test system: female obese Zucker rats; assay: Serum lipid and glycemic control variables in chow-fed obese female Zucker rats, daily oral gavage for two weeks; assay type: in vivo, rat; conditions: Rattus norvegicus, 100 mg/kg daily oral, Table 9
Experimental: Ten- to twelve-week old (400-500 grams) female Zucker fatty rats Cr1: (Zuc)-faBR were obtained from Charles River Laboratories. Animals were acclimated to the laboratory environment for seven days. During the acclimation and study period, animals were housed by group in shoebox polycarbonate cages on Cellu-Dri bedding. The temperature and humidity in the animals' quarters (68-78° F.; 30-75% RH) were monitored and the airflow in the room was sufficient to provide several exchanges per hour with 100% fresh filtered air. An automatic timing device provided an alternating 12-hour cycle of light and dark. Rats received pelleted Purina Laboratory Rodent Chow® (5001) prior to and during the drug intervention period except for a 6-hour phase prior to blood sampling. Fresh water was supplied ad libitum via an automatic watering system. Compounds were dissolved, suspended by mixing in a dosing vehicle consisting of 1.5% carboxymethylcellulose/0.2% Tween 20 or 20% ethanol and 80% polyethylene glycol-200 [v/v]. Dose volume of vehicle or vehicle plus each compound was set at 0.25% of body weight in order to deliver the appropriate dose. Doses were administered daily by oral gavage, approximately between 8-10 AM. Regarding blood sampling, animals were fasted for 6 hours prior to all blood collections. Prior to and after 7 days of dosing, a 1.0- to 2.0-mL sample of blood was collected by administering O2/CO2 anesthesia and bleeding from the orbital venous plexus. Following 14 days of dosing, blood was collected by cardiac puncture after euthanasia with CO2. All blood samples were processed for separation of serum and stored at −80° C. until analysis. Commercially available kits were used to determine serum triglycerides (Roche Diagnostic Corporation, Kit No. 148899 or Boehringer Mannheim, Kit No. 1488872), total cholesterol (Roche Diagnostic Corporation, Kit No. 450061), non-esterified fatty acids (Wako Chemicals, Kit No. 994-75409) and β-hydroxybutyrate (Wako Chemicals, Kit No. 417-73501 or Sigma Kit. No. 310-0) on a Hitachi 912 Automatic Analyzer (Roche Diagnostic Corporation). In some instances, an in-house cholesterol reagent was used to determine total serum cholesterol levels. Serum lipoprotein cholesterol levels were determined by lipoprotein profile analysis. Lipoprotein profiles were analyzed using gel-filtration chromatography on a Superose 6HR (1×30 cm) column equipped with on-line detection of total cholesterol as described by Kieft et al (Kieft, K. A.; Bocan, T. M.; Krause, B. R. Rapid on-line determination of cholesterol distribution among plasma lipoproteins after high-performance gel filtration chromatography. J. Lipid Res. 1991, 32, 859-866.). The total cholesterol content of each lipoprotein was calculated by multiplying the independent values determined for serum total cholesterol by the percent area of each lipoprotein in the profile. The percent body weight gain and the ratio of liver to body weight is also determined. Selected data are shown as absolute values or as a percent change of the pretreatment values in Tables 8 and 9.
Select compounds (214c, 210c, and 210g) were further evalutated in the Zucker rat by performing a full dose response and measuring additional scrum variables including markers for diabetes (Tables 10-12).

[3] = Table 7, ranges: confidence of estimate insufficient to assign a value
[4] = 168 h, 1 wk, read-out: HDL-Cholesterol, Percent Change from Pre-Treatment
[5] = 168 h, 1 wk, read-out: NonHDL-Cholesterol, Percent Change from Pre-Treatment
[6] = 168 h, 1 wk, read-out: TG, Percent Change from Pre-Treatment
[7] = 336 h, 2 wk, read-out: HDL-Cholesterol, Percent Change from Pre-Treatment
[8] = 336 h, 2 wk, read-out: NonHDL-Cholesterol, Percent Change from Pre-Treatment
[9] = 336 h, 2 wk, read-out: TG, Percent Change from Pre-Treatment

Structure (SMILES)	IC50 [1, 3]	change in vivo at 100 mg/kg [2, 4]	change in vivo at 100 mg/kg [2, 5]	change in vivo at 100 mg/kg [2, 6]	change in vivo at 100 mg/kg [2, 7]	change in vivo at 100 mg/kg [2, 8]	change in vivo at 100 mg/kg [2, 9]	IC50 ([1]; Table 6)
CC(C)(CO)CCCCCC(=O)CCCCC(C)(C)CO [Compound 219, 1,14-Dihydroxy-2,2,13,13-tetramethyltetradecan-7-one]	2 µM	78%	-70%	-85%	78%	-78%	-87%	
CC(C)(CO)CCCC(=O)CCCC(C)(C)CO [Compound 214a, 1,11-Dihydroxy-2,2,10,10-tetramethylundecan-6-one]	27 µM	24%	-23%	-31%	2%	28%	0%	
Cc1ccc(C(C)(CO)CCCCC(=O)CCCCC(C)(CO)c2ccc(C)cc2)cc1 (stereo not drawn) [Compound 214e, 1,13-Dihydroxy-2,12-dimethyl-2,12-di-p-tolyltridecan-7-one]	100 to 300 µM							
CC(C)(CO)CCCCCC(=O)CCCCCC(C)(C)CO [Compound 214g, 1,15-Dihydroxy-2,2,14,14-tetramethylpentadecan-8-one]	3 µM	76%	-91%	-92%	135%	-88%	-92%	
CC(CCCCC(=O)CCCCC(C)(C(=O)O)c1ccccc1)(C(=O)O)c1ccccc1 (stereo not drawn) [Compound 210d, 2,12-Dimethyl-7-oxo-2,12-diphenyltridecanedioic acid]		43%	36%	-36%	45%	79%	-8%	
CC(C)Cc1ccc(C(C)(CO)CCCCC(=O)CCCCC(C)(CO)c2ccc(CC(C)C)cc2)cc1 (stereo not drawn) [Compound 214f, 1,13-Dihydroxy-2,12-bis-(4-isobutylphenyl)-2,12-dimethyltridecan-7-one]		-5%	28%	-11%	6%	34%	-15%	
CC(C)(C)OC(=O)C1(CCCCC(=O)CCCCC2(C(=O)OC(C)(C)C)CC2)CC1 [Compound 106d, t-Butyl 1-[9-[1-(tert-butoxycarbonyl)cyclopropyl]-5-oxononyl]-1-cyclopropanecarboxylate]								35 µM
CC(C)(CO)CCCCC(=O)CCCC(C)(C)CO [Compound 217, 1,12-Dihydroxy-2,2,11,11-tetramethyldodecan-6-one]	3 to 10 µM	46%	-26%	-40%	48%	4%	-11%	
CC(CO)(CCCC(=O)CCCC(C)(CO)c1ccccc1)c1ccccc1 (stereo not drawn) [Compound 214b, 1,11-Dihydroxy-2,10-dimethyl-2,10-diphenylundecan-6-one]	100 to 300 µM	-14%	-18%	-20%	-11%	-32%	-17%	
CCOC(=O)C(C)(C)CCCCCCCC(=O)CCCCCCCC(C)(C)C(=O)OCC [Compound 106n, Diethyl 10-oxo-2,2,18,18-tetramethyl-nonadecanedioate]								13 µM
CC(C)(CCCCCCC(=O)CCCCCCC(C)(C)C(=O)O)C(=O)O [Compound 210i, 2,2,16,16-Tetramethyl-9-oxoheptadecanedioic acid]	9 µM							
